“Also recorded” adds a separate entry of the source. Where two headings read alike, the source gives them in different places. Where a SMILES comes first, the peptide text is derived from it. The star is where a group is joined. Cbz = O=C(OCc1ccccc1)*; CH2F = FC*
Tests used:
[1] = target: T1, Trib2-Luciferase (Luc-Trib2) fusion (Homo sapiens, UniProt Q92519); settings: for inhibition of Trib2-luciferase activity (in words): HFF-Trib2-Luc cells
T1 sequence (Q92519 with tags, fused parts or gaps): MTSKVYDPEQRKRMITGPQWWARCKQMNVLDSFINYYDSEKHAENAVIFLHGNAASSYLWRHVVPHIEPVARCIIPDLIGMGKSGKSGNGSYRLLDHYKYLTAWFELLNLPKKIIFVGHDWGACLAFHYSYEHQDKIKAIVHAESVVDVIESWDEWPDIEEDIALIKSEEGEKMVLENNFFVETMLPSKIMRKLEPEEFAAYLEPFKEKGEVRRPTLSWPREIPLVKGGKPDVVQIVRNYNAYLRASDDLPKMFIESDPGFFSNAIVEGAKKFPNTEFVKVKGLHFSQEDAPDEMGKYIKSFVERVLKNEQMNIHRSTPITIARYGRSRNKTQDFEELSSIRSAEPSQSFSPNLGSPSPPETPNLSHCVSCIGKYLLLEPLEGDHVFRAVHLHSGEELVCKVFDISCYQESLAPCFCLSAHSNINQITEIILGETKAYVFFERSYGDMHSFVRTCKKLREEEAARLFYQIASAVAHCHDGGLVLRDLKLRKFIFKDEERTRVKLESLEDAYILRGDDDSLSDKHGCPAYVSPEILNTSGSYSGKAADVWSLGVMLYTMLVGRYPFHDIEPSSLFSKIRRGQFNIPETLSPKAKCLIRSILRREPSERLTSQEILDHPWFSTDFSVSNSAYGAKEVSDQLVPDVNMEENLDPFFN

[2] = target: T1, Trib2-Luciferase (Luc-Trib2) fusion; assay: cell-based; settings: HFF, read-out: Luciferase activity (%)
Trib2-OE cells = assay: Enzalutamide sensitivity of Trib2-overexpressing prostate cancer cells; assay type: cell-based, human; settings: clinically relevant doses
Excerpt: Prostate cancer cells were transfected with full length human gene to overexpress Trib2 (FIG. 18). […] Trib2 siRNA was used in parallel experiments as a positive control.

LNCaP-ENR cells [3] = assay: MTS/PES cell viability assay, ERPC cells; assay type: cell-based, human; settings: LNCaP-ENR cells, varying doses, 72 hours, MTS/PES; listed as ledipasvir
Description: Plates were incubated for 72 hours at 37° C. in a CO2 incubator. Cell viability was measured by MTS/PES cell titer assay (Promega Corp., Madison, WI).

LNCaP-ENR cells [4] = assay: Apoptosis by Annexin V binding, flow cytometry; assay type: cell-based, human
Description: To test DCV effects on cancer cell apoptosis, LNCaP-ENR cells were treated with 8 μM DCV for 24 hours and analyzed by flow cytometry. Treatment with DCV indicated increased Annexin V binding, a read-out for apoptosis (FIG. 3C).

[5] = tested on: LNCaP-ENR and MR49F ERPC cells; assay: In vitro invasion through extracellular matrix; assay type: cell-based, human; settings: LNCaP-ENR and MR49F ERPC cells (data not shown)
TRIB2 = target: T2, TRIB2 (Homo sapiens, UniProt Q92519); assay: Western blot of TRIB2 protein levels in cancer cells; assay type: cell-based; design: Whole cell lysate proteins were analyzed by Western blot; endogenous in cells; host or cells: LNCaP-ENR (enzalutamide-resistant LNCaP) cells; settings: LNCaP-ENR cells, 10 μM, 24 hours, Western blot
T2 sequence (Q92519 1-343): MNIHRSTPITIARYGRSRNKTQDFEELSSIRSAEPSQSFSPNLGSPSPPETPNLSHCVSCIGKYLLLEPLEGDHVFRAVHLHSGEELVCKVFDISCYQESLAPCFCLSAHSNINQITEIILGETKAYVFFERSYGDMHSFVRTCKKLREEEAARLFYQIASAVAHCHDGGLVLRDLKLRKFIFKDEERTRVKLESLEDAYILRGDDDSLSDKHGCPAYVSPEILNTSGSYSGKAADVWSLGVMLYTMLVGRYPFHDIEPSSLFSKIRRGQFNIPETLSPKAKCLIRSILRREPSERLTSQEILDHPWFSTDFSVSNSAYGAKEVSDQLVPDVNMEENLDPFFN
Description: Enzalutamide-resistant prostate cancer (ERPC) cells (LNCaP-ENR cells) were plated and treated with 10 μM each of various compounds for 24 hours. Exemplary methods for developing and using LNCaP-ENR cells is disclosed in Monga, J., Subramani, D., Bharathan, A., and Ghosh, J. (2020) “Pharmacological and genetic targeting of 5-lipoxygenase interrupts c-Myc oncogenic signaling and kills enzalutamide-resistant prostate cancer cells via apoptosis.” Scientific Reports 10: 6649, the disclosure of which is incorporated herein by reference in its entirety. Whole cell lysate proteins were analyzed by Western blot. TRIB2 antibody was used to detect protein levels of TRIB2 and GAPDH was used as loading control. Monoclonal anti-Trib2 antibody was purchased from Santa Cruz Biotech, Santa Cruz, CA.
LNCaP-ENR cells were treated with varying doses (4 μM, 8 μM, or 12 μM) of DCV for 24 hours. Effects on TRIB2 protein levels and its downstream targets (e.g., pAkt, Bcl-xL, Survivin, and FOXO3) were analyzed by Western blot. GAPDH was used as loading control. Protein levels of TRIB2, pAKT (S473), Bcl-xL, and Survivin were reduced in cells treated with 12 μM of DCV compared to control-treated cells (FIG. 3A). Levels of FOXO3 protein were increased at 12 μM of DCV treatment compared to control treatment. This was expected, as FOXO3 level is known to be decreased by Trib2. These effects on cellular protein levels were DCV concentration-dependent, with the most pronounced effects observed at the highest concentration tested (12 μM).

LNCaP-ENR cells [6] = assay: Soft-agar colony formation assay; assay type: cell-based, human; settings: LNCaP-ENR (ERPC) cells, three weeks; DCV at 8 μM
Description: Effect of DCV on soft-agar colony formation was also analyzed. LNCaP-ENR cells (10,000 per well in 6-well plates) were plated in 0.3% soft-agar on top of a base layer of 0.6% agar. The cells were treated with DCV and incubated at 37° C. for three weeks in the CO2 incubator. Cells were given fresh media and drug every fourth day. At the end of the incubation period, colonies were stained with 0.025% crystal violet, and pictures of colonies were taken with a Nikon digital camera at ×200. Image processing was done using Q-Capture Pro-7 software. Exemplary methods of the foregoing technique can be found in Sarveswaran, Sivalokanathan et al. “Inhibition of 5-lipoxygenase downregulates stemness and kills prostate cancer stem cells by triggering apoptosis via activation of c-Jun N-terminal kinase.” Oncotarget vol. 10, 4 424-436. 11 Jan. 2019, the disclosure of which is incorporated herein by reference in its entirety.

[7] = 10 μM, 24 hours, Trib2-Luciferase fusion construct-transfected HFF cells, […]

Compound	activity at 10 µM [2] [%]	other results
C[C@@H]1CCO[C@H]2Cn3cc(C(=O)NCc4ccc(F)cc4F)c(=O)c(O)c3C(=O)N12 [Dolutegravir]	100	inhibition of Trib2-luciferase activity (in words) ([1]; 10 μM, 24 hours): completely ineffective; also recorded: not effective
NS(=O)(=O)c1cc(Cl)c(Cl)c(S(N)(=O)=O)c1 [Dichlorphrnamide]	–	Luciferase activity (%) ([1]; 10 µM): 100%
CC(=O)NCCCCCC(=O)O [6-Acetamidohexanoic]	–	Luciferase activity (%) [1, 7]: 100%
CNC(=O)c1ccc(N2C(=S)N(c3ccc(C#N)c(C(F)(F)F)c3)C(=O)C2(C)C)cc1F [enzalutamide]	–	response of Trib2-OE cells to enzalutamide (Trib2-OE cells): completely resistant
COC(=O)N[C@H](C(=O)N1CC2(CC2)C[C@H]1c1nc(-c2ccc3c(c2)C(F)(F)c2cc(-c4ccc5[nH]c([C@@H]6[C@H]7CC[C@H](C7)N6C(=O)[C@@H](NC(=O)OC)C(C)C)nc5c4)ccc2-3)c[nH]1)C(C)C [Ledipasvir]	100	Cell viability (LNCaP-ENR cells [3]): not; inhibition of Trib2-luciferase activity (in words) ([1]; 10 μM, 24 hours): completely ineffective; inhibition of Trib2-luciferase activity (in words) ([1]; 10 μM, 24 hours, listed as ledipasvir): no inhibition; also recorded: not effective; signs of apoptotic features (LNCaP-ENR cells [4]; ERPC cells): did not show any signs of apoptotic features; in vitro invasion through extracellular matrix [5]: completely ineffective; TRIB2 protein levels (TRIB2): neither downregulates TRIB2; soft-agar colony formation (LNCaP-ENR cells [6]): completely ineffective
CC(C)CN(C[C@@H](O)[C@H](Cc1ccccc1)NC(=O)O[C@H]1CO[C@H]2OCC[C@H]21)S(=O)(=O)c1ccc(N)cc1 [Darunavir]	93	inhibition of Trib2-luciferase activity (in words) ([1]; 10 μM, 24 hours): completely ineffective; also recorded: not effective
Nc1ccc(O)c(C(=O)O)c1 [5-Aminosalicyclic acid]	–	Luciferase activity (%) [1, 7]: 84%
Nc1nc2c(ncn2CCC(CO)CO)c(=O)[nH]1 [Penciclovir]	97	inhibition of Trib2-luciferase activity (in words) ([1]; 10 μM, 24 hours): not effective
COC(=O)C[C@H](NC(=O)[C@H](C)NC(=O)[C@@H](NC(=O)OCc1ccccc1)C(C)C)C(=O)CF [Z-VAD-FMK] (Cbz-Val-Ala-Asp(OMe)-CH2F)	–	DCV treatment-induced apoptosis after pretreatment with caspase inhibitor (LNCaP-ENR cells [4]; ERPC cells pretreated): inhibited
Niraparib tosylate	–	Luciferase activity (%) ([1]; 10 µM): 93%
CN(C)[C@@H](CCOc1cccc2ccccc12)c1ccccc1 [Dapoxetine]	88	–
CC[C@H]1[C@@H]2C[C@H]3[C@@H]4N(C)c5ccccc5[C@]45C[C@@H]([C@@H]2[C@H]5O)N3[C@@H]1O [Ajamaline]	–	Luciferase activity (%) ([1]; 10 µM): 93%
O=c1[nH]c(=O)n(C2CCCO2)cc1F (stereo not shown) [Tegafur]	100	–
O[C@@H]1CO[C@H]2[C@@H]1OC[C@@H]2O [Isosorbide]	91	–
CCOC(=O)OC(C)OC1=C(C(=O)Nc2ccccn2)N(C)S(=O)(=O)c2ccccc21 (stereo not shown) [Ampiroxicam]	28	–
CC(/C=C1\SC(=S)N(CC(=O)O)C1=O)=C\c1ccccc1 [Epalrestat]	53	–
Cn1c([N+](=O)[O-])cnc1COC(N)=O [Ronidazole]	100	–

Compound	activity at 10 µM [2] [%]	other results
CCOC(=O)[C@@H](N)Cc1ccc(-c2cc(O[C@H](c3ccc(Cl)cc3-n3ccc(C)n3)C(F)(F)F)nc(N)n2)cc1 [Telotristat etiprate]	94	–
CC(=O)OC(C)C[N+](C)(C)C (stereo not shown) [Methacholine]	99	–
Nc1ccc(S(=O)(=O)Nc2ncccn2)cc1 [Sulfadiazine]	70	–
COc1ccc2c(c1OC)C(=O)O[C@@H]2[C@H]1c2c(cc3c(c2OC)OCO3)CCN1C [Noscapine]	100	–
NCCC[C@H](NC(=O)[C@@H]1CCCN1C(=O)[C@@H]1CSSC[C@H](N)C(=O)N[C@@H](Cc2ccc(O)cc2)C(=O)N[C@@H](Cc2ccccc2)C(=O)N[C@@H](CCC(N)=O)C(=O)N[C@@H](CC(N)=O)C(=O)N1)C(=O)NCC(N)=O [Ornipressin]	27	–
COc1cc2nc(N3CCN(C(=O)c4ccco4)CC3)nc(N)c2cc1OC [Prazosin]	49	–
O=C(CCCN1CC=C(n2c(=O)[nH]c3ccccc32)CC1)c1ccc(F)cc1 [Droperidol]	100	–
CN1CCC(=C2c3ccccc3CCn3c(C=O)cnc32)CC1 [Alcaftadine]	100	–
COC(=O)[C@H]1[C@H]2C[C@@H]3c4[nH]c5cc(OC)ccc5c4CCN3C[C@H]2C[C@@H](OC(=O)c2cc(OC)c(OC)c(OC)c2)[C@@H]1OC [Resperine]	–	Luciferase activity (%) ([1]; 10 µM): 91%
CCOC(=O)CC(SP(=S)(OC)OC)C(=O)OCC (stereo not shown) [Malathion]	91	–
Temsirolmus	–	Luciferase activity (%) ([1]; 10 µM): 94%
Cc1ccccc1C(=O)Nc1ccc(C(=O)N2CCCC(N(C)C)c3ccccc32)cc1 (stereo not shown) [Mozavaptan]	86	–
C[C@]12CC[C@@H]3c4ccc(O)cc4CC[C@H]3[C@@H]1CCC2=O [Estrone]	82	–
CCCc1nc(C(C)(C)O)c(C(=O)O)n1Cc1ccc(-c2ccccc2-c2nnn[nH]2)cc1 [Olmesartan]	80	–
C[C@@H](CN1CC(=O)NC(=O)C1)N1CC(=O)NC(=O)C1 [Dexrazoxane]	100	–
CCCCc1nc(C)c(CC(=S)N(C)C)c(=O)n1Cc1ccc(-c2ccccc2-c2nnn[nH]2)cc1 [Fimasartan]	88	–

— patent US12721838B2 (Henry Ford Health System, priority 2020, dated 2026)
